Here are results for three compounds from ChEMBL document CHEMBL4425155, “Synthesis and anti-HBV activity of α-stereoisomer of aristeromycin based analogs” (Bioorg Med Chem Lett, 2016).

System in one data set: not listed separately
Kind of data set: Cytotoxicity against human HepG2.2.15.7 cells assessed as reduction in cell viability after 9 days by tetrazolium dye based method.
Settings: not given
A word on the CC50: it is the concentration at which the toxic effect on the cells reaches its halfway point. As for `Cc1nc(N)c2c(Br)nn([C@@H]3C[C@@H](CO)[C@@H](O)[C@H]3O)c2n1`, the CC50 at 216 h is > 100 µM.
With `Cc1ncnc2c1c(Br)cn2[C@@H]1C[C@@H](CO)[C@@H](O)[C@H]1O`, the CC50 at 216 h is > 100 µM.
In the case of `Nc1ccn([C@@H]2CS[C@H](CO)O2)c(=O)n1` [LAMIVUDINE], the CC50 at 216 h is > 10 µM.

For the next data set, the system named is Hepatitis B virus. Kind of data set: Antiviral activity against HBV infected in human HepG2.2.15.7 cells assessed as inhibition of viral DNA level after 9 days by real time PCR method. Format: functional, organism-based. The settings on record: HepG2.2.15.7, 216 h. (In general: Quantitative PCR measures a nucleic acid by following its amplification.)
In general, EC50 refers to the concentration needed to bring the measured effect to its halfway point. With `Cc1nc(N)c2c(Br)nn([C@@H]3C[C@@H](CO)[C@@H](O)[C@H]3O)c2n1`, the EC50 was > 100 µM.
The same measure, in the same setting: the value for `Cc1ncnc2c1c(Br)cn2[C@@H]1C[C@@H](CO)[C@@H](O)[C@H]1O` was 6.6 µM.
The same measure, in the same setting: the value for `Nc1ccn([C@@H]2CS[C@H](CO)O2)c(=O)n1` [LAMIVUDINE] was 0.03 µM.
